Structures are written as SMILES.

Common to all, as to assay: Kinase panel study
Format in all cases: biochemical
What all share (settings): read-out: Percentage of inhibition; for inhibition at 1 µM: 1000nM; for inhibition at 10 µM: 10000nM

Assay [1] deals with T1, IKBKE (IKK epsilon) (Homo sapiens, UniProt Q14164).
T1 construct: purchased Thermo Fisher Scientific
T1 sequence (Q14164 1-716): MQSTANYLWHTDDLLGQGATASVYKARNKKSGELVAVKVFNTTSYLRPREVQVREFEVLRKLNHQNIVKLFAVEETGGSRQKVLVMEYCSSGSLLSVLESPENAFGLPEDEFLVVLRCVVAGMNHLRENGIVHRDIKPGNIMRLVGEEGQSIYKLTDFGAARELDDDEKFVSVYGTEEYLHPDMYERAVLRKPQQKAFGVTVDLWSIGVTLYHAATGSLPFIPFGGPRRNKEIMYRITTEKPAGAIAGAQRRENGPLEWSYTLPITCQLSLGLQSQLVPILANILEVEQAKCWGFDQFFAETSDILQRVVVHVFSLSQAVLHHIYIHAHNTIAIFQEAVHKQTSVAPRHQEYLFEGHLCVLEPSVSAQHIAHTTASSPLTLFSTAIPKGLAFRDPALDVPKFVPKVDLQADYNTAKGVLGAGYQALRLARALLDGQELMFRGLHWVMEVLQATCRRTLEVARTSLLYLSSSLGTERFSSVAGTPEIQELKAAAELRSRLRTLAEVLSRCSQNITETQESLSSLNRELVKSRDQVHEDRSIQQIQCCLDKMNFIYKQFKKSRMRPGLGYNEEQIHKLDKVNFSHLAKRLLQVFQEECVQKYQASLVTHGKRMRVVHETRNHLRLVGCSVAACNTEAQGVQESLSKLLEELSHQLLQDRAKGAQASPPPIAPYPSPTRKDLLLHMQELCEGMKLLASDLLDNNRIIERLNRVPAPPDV
The method in brief: (§1)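 Inhibition was measured in an outsourced in vitro kinase panel using the ZLyte or Adapta format under the provider's standard procedures. Values are percent inhibition at 10 µM or 1 µM compound, and IC50s were also obtained.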

The target in assay [2] is T2, SGK2 (Homo sapiens, UniProt Q9HBY8).
T2 construct: purchased Thermo Fisher Scientific
T2 sequence (Q9HBY8 1-367): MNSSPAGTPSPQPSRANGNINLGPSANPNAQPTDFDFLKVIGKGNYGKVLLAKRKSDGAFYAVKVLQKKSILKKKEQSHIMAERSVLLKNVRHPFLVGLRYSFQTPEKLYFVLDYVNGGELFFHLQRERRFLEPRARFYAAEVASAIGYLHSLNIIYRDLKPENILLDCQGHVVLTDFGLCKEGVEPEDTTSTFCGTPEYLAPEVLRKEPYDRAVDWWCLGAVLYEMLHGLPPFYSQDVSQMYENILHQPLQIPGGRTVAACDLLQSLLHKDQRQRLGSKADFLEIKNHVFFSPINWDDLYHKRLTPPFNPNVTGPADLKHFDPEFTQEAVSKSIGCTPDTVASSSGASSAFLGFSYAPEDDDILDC
The method in brief:
as §1

The target of assay [3] is T3, GSK3B (GSK3 beta) (Homo sapiens, UniProt P49841).
T3 construct: purchased Thermo Fisher Scientific
T3 sequence (P49841 whole entry): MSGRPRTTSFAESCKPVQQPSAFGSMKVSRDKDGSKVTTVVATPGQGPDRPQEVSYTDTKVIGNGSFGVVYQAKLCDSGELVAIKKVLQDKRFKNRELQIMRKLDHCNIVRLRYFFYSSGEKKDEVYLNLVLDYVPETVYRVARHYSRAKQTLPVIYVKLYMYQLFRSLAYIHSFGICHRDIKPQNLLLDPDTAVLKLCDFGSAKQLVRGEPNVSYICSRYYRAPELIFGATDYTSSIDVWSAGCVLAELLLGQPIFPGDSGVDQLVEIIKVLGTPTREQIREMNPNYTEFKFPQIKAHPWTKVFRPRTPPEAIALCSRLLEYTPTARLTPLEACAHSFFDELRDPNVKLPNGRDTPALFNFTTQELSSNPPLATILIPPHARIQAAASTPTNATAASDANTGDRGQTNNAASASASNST
The method, boiled down: as §1

The target of assay [4] is T4, JAK2 JH1 JH2 V617F (Homo sapiens, UniProt O60674, V617F).
T4 construct: JAK2 JH1 JH2 V617F; purchased Thermo Fisher Scientific
T4 sequence (O60674 532-1132 V617F limits assumed): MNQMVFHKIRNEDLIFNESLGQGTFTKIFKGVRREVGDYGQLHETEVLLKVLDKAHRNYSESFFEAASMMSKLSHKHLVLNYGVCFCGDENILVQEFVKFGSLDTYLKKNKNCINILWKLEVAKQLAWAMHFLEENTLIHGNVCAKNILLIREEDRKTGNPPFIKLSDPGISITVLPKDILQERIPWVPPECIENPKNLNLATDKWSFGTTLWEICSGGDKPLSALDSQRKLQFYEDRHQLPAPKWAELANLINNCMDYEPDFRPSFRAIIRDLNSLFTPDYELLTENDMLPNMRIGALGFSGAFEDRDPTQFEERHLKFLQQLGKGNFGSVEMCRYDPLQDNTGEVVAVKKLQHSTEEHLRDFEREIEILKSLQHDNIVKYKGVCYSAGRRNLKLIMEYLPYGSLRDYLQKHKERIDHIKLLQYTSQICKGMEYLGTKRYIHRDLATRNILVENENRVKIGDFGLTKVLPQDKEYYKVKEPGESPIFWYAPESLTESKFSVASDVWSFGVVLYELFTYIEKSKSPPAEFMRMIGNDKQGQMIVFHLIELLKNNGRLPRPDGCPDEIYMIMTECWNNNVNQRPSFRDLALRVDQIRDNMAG
The method in brief: as §1

Assay [5] deals with T5, CDK17/cyclin Y (Homo sapiens, UniProt Q00537).
T5 construct: purchased Thermo Fisher Scientific
T5 sequence (Q00537 whole entry): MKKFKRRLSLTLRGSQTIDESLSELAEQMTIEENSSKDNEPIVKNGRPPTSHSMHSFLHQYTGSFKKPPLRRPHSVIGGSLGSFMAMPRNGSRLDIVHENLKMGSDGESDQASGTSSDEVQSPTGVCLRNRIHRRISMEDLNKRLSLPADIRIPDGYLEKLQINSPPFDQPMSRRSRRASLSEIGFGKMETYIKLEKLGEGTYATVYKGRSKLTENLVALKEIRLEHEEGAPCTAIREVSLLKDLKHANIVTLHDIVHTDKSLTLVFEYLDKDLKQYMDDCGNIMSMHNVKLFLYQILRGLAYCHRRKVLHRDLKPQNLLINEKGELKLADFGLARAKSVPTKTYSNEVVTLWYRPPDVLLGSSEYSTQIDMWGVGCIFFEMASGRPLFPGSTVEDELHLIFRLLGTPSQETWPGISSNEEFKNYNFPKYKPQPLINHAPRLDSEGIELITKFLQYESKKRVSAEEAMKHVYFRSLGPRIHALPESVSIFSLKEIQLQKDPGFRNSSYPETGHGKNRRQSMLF
T5 sequence (Q8ND76 whole entry partner): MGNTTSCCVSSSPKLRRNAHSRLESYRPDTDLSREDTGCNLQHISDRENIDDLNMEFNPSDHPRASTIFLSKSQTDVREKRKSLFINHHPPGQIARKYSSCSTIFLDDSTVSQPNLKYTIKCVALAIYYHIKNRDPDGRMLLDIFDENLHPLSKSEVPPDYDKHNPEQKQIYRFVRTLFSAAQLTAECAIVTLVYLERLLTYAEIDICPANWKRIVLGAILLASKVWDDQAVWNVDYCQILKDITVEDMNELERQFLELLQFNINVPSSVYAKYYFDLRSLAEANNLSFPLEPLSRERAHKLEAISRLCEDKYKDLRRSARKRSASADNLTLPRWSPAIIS
The method in brief:
as §1

The target of assay [6] is T6, CDK4/cyclin D3 (Homo sapiens, UniProt P11802).
T6 construct: purchased Thermo Fisher Scientific
T6 sequence (P11802 whole entry): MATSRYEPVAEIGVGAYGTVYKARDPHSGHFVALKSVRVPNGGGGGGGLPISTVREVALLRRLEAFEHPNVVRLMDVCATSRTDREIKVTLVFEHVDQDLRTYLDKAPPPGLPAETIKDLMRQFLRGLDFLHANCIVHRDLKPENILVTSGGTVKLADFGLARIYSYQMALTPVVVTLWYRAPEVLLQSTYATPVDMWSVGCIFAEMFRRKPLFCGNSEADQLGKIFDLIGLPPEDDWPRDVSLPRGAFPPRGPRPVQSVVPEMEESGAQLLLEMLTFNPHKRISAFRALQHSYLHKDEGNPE
T6 sequence (P30281 whole entry partner): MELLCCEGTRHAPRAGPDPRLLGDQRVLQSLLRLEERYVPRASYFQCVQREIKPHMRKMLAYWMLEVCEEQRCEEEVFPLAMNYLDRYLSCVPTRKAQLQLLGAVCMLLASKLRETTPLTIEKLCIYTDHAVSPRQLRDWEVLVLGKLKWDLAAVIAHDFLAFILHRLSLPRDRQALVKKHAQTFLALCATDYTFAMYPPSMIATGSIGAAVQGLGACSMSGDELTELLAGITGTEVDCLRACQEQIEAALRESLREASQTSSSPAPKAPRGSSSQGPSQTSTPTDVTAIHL
The method, boiled down:
as §1

Assay [7] has as its target T7, FGFR3 V555M (Homo sapiens, UniProt P22607, V555M).
T7 construct: purchased Thermo Fisher Scientific
The method in brief:
as §1

Assay [8] has as its target T8, FES (FPS) (Homo sapiens, UniProt P07332).
T8 construct: purchased Thermo Fisher Scientific
The method in brief:
as §1

The target in assay [9] is T9, RPS6KB2 (p70S6Kb) (Homo sapiens, UniProt Q9UBS0).
T9 construct: purchased Thermo Fisher Scientific
The method in brief:
as §1

The target of assay [10] is T10, FGFR2 (Homo sapiens, UniProt P21802).
T10 construct: purchased Thermo Fisher Scientific
T10 sequence (P21802 22-821): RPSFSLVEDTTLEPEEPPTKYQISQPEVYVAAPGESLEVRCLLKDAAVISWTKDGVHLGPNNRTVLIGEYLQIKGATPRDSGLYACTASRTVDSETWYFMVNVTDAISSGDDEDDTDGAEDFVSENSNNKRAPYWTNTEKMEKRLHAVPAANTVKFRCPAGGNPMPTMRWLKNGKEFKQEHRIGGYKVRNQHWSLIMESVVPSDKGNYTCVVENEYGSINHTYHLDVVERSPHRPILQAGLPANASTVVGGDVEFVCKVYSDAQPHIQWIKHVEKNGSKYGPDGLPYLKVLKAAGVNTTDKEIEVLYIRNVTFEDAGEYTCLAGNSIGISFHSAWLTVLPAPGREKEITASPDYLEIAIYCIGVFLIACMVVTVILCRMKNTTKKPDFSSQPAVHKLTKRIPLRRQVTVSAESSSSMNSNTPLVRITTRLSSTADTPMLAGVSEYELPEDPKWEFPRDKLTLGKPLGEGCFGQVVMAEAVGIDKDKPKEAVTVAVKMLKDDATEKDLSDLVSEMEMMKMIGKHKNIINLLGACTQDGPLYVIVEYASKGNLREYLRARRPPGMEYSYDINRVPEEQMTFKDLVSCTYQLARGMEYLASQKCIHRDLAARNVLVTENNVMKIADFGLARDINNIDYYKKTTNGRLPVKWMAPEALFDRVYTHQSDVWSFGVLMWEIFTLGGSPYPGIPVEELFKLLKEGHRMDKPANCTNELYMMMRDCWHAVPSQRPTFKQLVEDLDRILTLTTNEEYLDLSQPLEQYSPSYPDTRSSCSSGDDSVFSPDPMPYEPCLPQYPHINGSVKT
The method, boiled down:
as §1

T8 sequence (P07332 whole entry): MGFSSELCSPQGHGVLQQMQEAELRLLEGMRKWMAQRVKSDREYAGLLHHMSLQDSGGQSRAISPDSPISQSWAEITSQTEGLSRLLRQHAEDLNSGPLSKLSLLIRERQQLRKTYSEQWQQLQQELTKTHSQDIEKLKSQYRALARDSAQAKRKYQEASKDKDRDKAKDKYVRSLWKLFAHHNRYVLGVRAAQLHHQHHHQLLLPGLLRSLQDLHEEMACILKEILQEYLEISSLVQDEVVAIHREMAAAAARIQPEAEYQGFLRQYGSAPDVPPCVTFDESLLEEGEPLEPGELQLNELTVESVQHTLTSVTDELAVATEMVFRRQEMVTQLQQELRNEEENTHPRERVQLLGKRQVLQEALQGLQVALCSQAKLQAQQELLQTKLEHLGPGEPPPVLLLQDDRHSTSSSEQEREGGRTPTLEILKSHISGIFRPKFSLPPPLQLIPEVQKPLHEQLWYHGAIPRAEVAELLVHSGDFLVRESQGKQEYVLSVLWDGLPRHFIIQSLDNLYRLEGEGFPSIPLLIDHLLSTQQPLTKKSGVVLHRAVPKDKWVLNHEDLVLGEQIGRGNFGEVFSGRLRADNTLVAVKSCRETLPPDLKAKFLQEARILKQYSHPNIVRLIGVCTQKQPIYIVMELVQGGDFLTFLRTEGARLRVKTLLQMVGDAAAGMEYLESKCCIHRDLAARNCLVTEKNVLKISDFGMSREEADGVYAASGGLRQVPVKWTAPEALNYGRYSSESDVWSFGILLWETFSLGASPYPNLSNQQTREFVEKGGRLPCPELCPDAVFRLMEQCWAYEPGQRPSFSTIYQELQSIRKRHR
T7 sequence (P22607 23-806 V555M): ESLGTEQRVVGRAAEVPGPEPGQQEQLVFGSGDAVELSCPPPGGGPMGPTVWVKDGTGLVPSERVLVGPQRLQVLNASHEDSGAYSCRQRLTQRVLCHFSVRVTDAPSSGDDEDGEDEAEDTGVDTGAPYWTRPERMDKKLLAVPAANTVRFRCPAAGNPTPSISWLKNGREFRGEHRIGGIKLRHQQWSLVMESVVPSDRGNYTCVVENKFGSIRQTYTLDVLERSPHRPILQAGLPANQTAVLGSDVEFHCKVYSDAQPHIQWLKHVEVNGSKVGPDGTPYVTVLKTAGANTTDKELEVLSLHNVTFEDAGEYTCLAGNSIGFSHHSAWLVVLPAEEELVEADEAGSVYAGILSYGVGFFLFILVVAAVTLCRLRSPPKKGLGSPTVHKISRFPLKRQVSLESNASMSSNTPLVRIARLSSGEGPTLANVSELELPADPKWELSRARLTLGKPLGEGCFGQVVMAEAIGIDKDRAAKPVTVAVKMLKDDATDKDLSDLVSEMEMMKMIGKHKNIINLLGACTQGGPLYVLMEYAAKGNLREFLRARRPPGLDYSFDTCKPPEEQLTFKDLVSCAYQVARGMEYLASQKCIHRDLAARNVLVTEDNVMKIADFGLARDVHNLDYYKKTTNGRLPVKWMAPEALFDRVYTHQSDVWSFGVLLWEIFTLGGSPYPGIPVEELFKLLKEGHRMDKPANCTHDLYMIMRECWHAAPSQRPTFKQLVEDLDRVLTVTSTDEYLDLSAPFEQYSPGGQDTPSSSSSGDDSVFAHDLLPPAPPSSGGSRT

Turning to `COc1ccc2c(c1OC)c(=O)n1c3ccc(O)cc3c3ccnc2c31` [MW01, 5-Hydroxy-10,11-dimethoxy-9H-benzo[c]indolo[3,2,1-ij][1,5]naphthyridin-9-one], the inhibition at 1 µM was 11% in assay [1]; 6% in assay [2]; 27% in assay [3]; 15% in assay [4]; 3% in assay [5]; -2% in assay [6]. In addition, the inhibition at 1 µM in assay [7] stood at 5%; in assay [8], 0%; in assay [9], 7%; in assay [10], 13%. The inhibition at 10 µM in assay [1] was 17%; in assay [2], 14%; in [3], 52%; in assay [4] it was 29%; in assay [5], 9%; in assay [6], -6%. Further, the inhibition at 10 µM in assay [7] is 11%; in assay [8], 15%; in assay [9] it was 1%; in assay [10] it was 11%.
Take `COc1ccc2cc3c(N)nn(C(=O)c4cccc(N(C)C)c4)c3nc2c1` [MW05, (3-Amino-7-methoxypyrazolo[3,4-b]quinolin-1-yl)-[3-(dimethylamino)phenyl]methanone]: the inhibition at 1 µM was 8% in [1]; -3% in assay [2]; 6% in assay [3]; 1% in assay [4]; 8% in [5]; -6% in [6]. The inhibition at 1 µM in assay [7] is -30%; in assay [8], 1%; in [9], 3%; in assay [10] it was 0%. In addition, the inhibition at 10 µM was 6% in [1]; -11% in assay [2]; 14% in assay [3]; -28% in assay [4]; 21% in [5]; -8% in assay [6]. Further, the inhibition at 10 µM in assay [7] is -9%; in assay [8], -1%; in [9] it was 15%; in assay [10] it was -5%.

The values above are taken from patent EP4467141A1, “PYRAZOLO-QUINOLINES AS SELECTIVE INHIBITORS OF GENOTOXIC STRESS-INDUCED IKK/NF- KB PATHWAYS FOR CANCER THERAPY” (Max-Delbrück-Centrum für Molekulare Medizin in der …, priority 2023, dated 2024).
